Data from patent US9675592B2, “Methods and compositions for bacteria infections” (priority 2013, dated 2017).

Experiments:
923 containing pPvra-lux = test: Oxacillin MIC of test strain in 96-well format; format: cell-based, Staphylococcus aureus
multiple strains of MRSA = test: MICs (minimal inhibitory concentrations) vs multiple strains of MRSA; format: cell-based, Staphylococcus aureus; conditions: no compound
strain 923 [1] = conditions: strain 923, CLSI guidelines; cited from earlier work
[2] = tested on: vraSR expression (Pvra-lux reporter in strain 923); test: Validation of test strain: oxacillin induction of luminescence; format: cell-based, Staphylococcus aureus; conditions: luminescence of 923 Pvra-lux, 2 hours
strain 923 [3] = test: Oxacillin MIC of strain 923; format: cell-based; conditions: Staphylococcus aureus; strain 923, cultured in the 96-well format

## Cc1onc(-c2ccccc2)c1C(=O)N[C@@H]1C(=O)N2[C@@H]1SC(C)(C)[C@@H]2C(=O)O [oxacillin, reference compound]
923 containing pPvra-lux
  MIC of oxacillin: 5 µg/mL
Multiple strains of MRSA; isolate 923, SCCmec IV, ST 8
  Ox MIC alone: 16 µg/mL
Multiple strains of MRSA; isolate 1176, SCCmec II, ST 231
  Ox MIC alone: 32 µg/mL
Multiple strains of MRSA; isolate 2169, SCCmec IV, ST 72
  Ox MIC alone: 16 µg/mL
Multiple strains of MRSA; isolate 8004-01, SCCmec III, ST 239
  Ox MIC alone: 256 µg/mL
Multiple strains of MRSA; isolate 8010-01, SCCmec IV, ST 8
  Ox MIC alone: 16 µg/mL
Multiple strains of MRSA; isolate 8227-01, SCCmec IV, ST 87
  Ox MIC alone: 2 µg/mL
Multiple strains of MRSA; isolate 11095, SCCmec II, ST 105
  Ox MIC alone: 256 µg/mL
Multiple strains of MRSA; isolate 13113, SCCmec II, ST 5
  Ox MIC alone: 16 µg/mL
Multiple strains of MRSA; isolate 13354, SCCmec IV, ST 5
  Ox MIC alone: 8 µg/mL
Multiple strains of MRSA; isolate 14315, SCCmec IV, ST 1
  Ox MIC alone: 32 µg/mL
Multiple strains of MRSA; isolate Q2461, SCCmec VT, ST 59
  Ox MIC alone: 8 µg/mL
Strain 923 [1]
  24-h oxacillin MIC: 16 to 32 µg/mL
[2]
  minimum concentration sufficient for maximal vraSR expression: 2 µg/mL
Strain 923 [3]
  MIC: 8 µg/mL
